Reference: patent US5696082A, “Hydroxamic acid derivatives” (British Biotech Pharmaceuticals Limited, priority 1993, dated 1997)
pIC50: −log10 of the molar value.

Legend:
stromelysin = stromelysin (Homo sapiens, UniProt P08254); test: Stromelysin inhibition (hydrolysis of 14C acetylated casein); assay type: biochemical; conditions: 37°, 16 hours, pH 7.5, 14C acetylated casein
Experimental: The potency of compounds of the invention as inhibitors of stromelysin was determined by the procedure of Cawston et al, (Biochem. J., 195, 159-165, 1981), hereby incorporated by reference, whereby a 1 mM solution of the compound being tested, or a dilution thereof, was incubated at 37° for 16 hours with stromelysin and ^14 C acetylate casein (buffered with 25 mM Hepes [Registered Trade Mark], pH 7.5 containing 5 mM CaCl2, 0.05% Brij [Registered Trade Mark] 35 and 0.02% NAN3). The casein was acetylated ^14 C casein prepared by the method of Cawston et al (ibid).

collagenase = collagenase (Homo sapiens, UniProt P03956); test: Collagenase inhibition (hydrolysis of acetylated 14C collagen); assay type: biochemical; conditions: 37° C., 16 hours, pH 7.5, acetylated 14C collagen
Experimental: The potency of compounds of the invention as inhibitors of collagenase was determined by the procedure of Cawston and Barrett, (Anal. Biochem., 99, 340-345, 1979), hereby incorporated by reference, whereby a 1 mM solution of the compound being tested, or a dilution thereof, was incubated at 37° C. for 16 hours with collagen and collagenase (buffered with 25 mM Hepes [Registered Trade Mark], pH 7.5 containing 5 mM CaCl2, 0.05% Brij [Registered Trade Mark] 35 and 0.02% NAN3). The collagen Was acetylated 14C collagen prepared by the method of Cawston and Murphy, (Methods in Enzymology, 80, 711, 1981), hereby incorporated by reference. The samples were centrifuged to sediment undigested collagen, and an aliquot of the radioactive supernatant removed for assay on a scintillation counter as a measure of hydrolysis.

Chain of stromelysin (P08254 100-477): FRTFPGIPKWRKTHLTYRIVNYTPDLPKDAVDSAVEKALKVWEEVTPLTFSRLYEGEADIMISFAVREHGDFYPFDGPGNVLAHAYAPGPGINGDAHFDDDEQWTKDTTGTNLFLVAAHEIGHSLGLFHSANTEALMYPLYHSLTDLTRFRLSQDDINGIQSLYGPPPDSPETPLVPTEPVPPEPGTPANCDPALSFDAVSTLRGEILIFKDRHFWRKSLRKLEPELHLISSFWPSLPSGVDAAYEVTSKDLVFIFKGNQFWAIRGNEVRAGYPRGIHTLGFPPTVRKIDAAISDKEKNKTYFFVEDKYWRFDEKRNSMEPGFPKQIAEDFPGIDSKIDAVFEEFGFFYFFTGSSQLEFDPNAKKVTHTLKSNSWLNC
Chain of collagenase (P03956 100-469): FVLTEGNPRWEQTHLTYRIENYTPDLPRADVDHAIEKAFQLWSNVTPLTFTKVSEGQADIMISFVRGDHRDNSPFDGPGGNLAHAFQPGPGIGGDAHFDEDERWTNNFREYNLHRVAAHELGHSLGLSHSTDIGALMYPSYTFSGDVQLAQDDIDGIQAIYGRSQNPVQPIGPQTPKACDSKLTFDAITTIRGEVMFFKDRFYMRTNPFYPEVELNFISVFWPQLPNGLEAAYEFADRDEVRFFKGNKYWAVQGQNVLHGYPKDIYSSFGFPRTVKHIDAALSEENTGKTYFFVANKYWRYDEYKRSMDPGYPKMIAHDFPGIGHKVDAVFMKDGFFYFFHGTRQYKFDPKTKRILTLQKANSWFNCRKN

What does the source list for `CNC(=O)[C@H](Cc1ccc(OCC(=O)N[C@@H]2O[C@H](CO)[C@@H](O)[C@H](O)[C@H]2NC(C)=O)cc1)NC(=O)[C@@H](CC(=O)NO)CC(C)C` [Example 3, [4-(N-Hydroxyamino)-2R-isobutylsuccinyl]-O-[(2-acetamido-2-deoxy-β-D-glucopyranosyl)carboxamidomethyl]-L-tyrosine-N-methylamide]?
pIC50 (stromelysin): 6.22; pIC50 (collagenase): 7.70
